Experiment in all cases: Growth inhibitory activity of compounds on BaF3 cell lines stably transfected with kinase (MTS, 48 h)
Type in all cases: cell-based

Experiment [1] concerns the target T1, various mutants of kinase EGFR (BaF3 cell lines stably transfected with kinase) (Homo sapiens, UniProt P00533).
T1 construct: other: BaF3 cells stably transfected with EGFR Δ19Del; MTS, 48 h; other: BaF3 cell line stably transfected with EGFR Δ19Del
The conditions noted are these: BaF3 cell line stably transfected with EGFR Δ19Del, read-out: Δ19Del growth inhibitory activity IC50. The procedure, abridged:
(§1)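 Cells in DMEM or RPMI 1640 with 10% FBS were exposed to compound at 8 concentrations (top 10 µM, 1/3 steps, 0.1% DMSO) for 48 h at 37 °C, 5% CO2. MTS/PES was then added for 1-4 h and OD490 read; IC50 was fitted from growth inhibition versus 0.1% DMSO control.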

Experiment [2] concerns the target T2, various mutants of kinase EGFR (BaF3 cell lines stably transfected with kinase) (Homo sapiens, UniProt P00533, C797S/L858R/T790M).
T2 construct: expressed in transfected cells; host or cells: BaF3
The conditions noted are these: BaF3 cell line stably transfected with EGFR L858R/T790M/C797S, read-out: L858R/T790M/ C797S growth inhibitory activity IC50. The gist of the method: as §1

The target of experiment [3] is T3, various mutants of kinase EGFR (BaF3 cell lines stably transfected with kinase) (Homo sapiens, UniProt P00533, L858R).
T3 construct: expressed in transfected cells; host or cells: BaF3
T3 sequence (P00533 25-1210 L858R): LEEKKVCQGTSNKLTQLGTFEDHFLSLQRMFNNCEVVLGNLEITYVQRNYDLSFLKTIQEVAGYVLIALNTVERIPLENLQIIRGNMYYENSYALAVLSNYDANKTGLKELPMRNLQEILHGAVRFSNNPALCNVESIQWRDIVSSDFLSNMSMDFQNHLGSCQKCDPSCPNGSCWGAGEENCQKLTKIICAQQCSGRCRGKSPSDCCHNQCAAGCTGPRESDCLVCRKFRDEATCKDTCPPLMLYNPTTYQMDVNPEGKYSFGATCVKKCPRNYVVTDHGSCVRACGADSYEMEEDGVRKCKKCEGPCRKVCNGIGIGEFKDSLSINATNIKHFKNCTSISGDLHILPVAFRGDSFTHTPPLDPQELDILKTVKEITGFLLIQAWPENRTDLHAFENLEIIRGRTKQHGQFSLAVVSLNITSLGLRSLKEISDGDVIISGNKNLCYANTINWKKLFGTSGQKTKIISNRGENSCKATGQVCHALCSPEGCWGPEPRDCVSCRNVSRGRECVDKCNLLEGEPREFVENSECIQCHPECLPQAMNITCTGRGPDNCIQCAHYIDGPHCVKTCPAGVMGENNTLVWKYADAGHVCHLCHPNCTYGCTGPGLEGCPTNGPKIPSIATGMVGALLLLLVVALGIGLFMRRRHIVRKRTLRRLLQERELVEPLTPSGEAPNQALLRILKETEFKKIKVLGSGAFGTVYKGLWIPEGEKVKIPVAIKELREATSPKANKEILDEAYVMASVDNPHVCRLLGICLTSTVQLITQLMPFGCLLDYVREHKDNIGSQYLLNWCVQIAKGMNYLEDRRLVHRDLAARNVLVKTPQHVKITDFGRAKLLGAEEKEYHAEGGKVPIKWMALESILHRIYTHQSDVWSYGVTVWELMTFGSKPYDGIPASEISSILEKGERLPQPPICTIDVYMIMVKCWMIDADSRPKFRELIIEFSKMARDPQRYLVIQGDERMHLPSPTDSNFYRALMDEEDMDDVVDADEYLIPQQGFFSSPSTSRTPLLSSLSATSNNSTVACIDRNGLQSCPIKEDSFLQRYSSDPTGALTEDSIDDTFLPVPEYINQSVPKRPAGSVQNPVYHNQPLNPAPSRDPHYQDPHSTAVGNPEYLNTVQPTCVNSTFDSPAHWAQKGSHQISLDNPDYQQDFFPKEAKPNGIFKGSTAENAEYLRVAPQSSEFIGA
The settings on record: BaF3 cell line stably transfected with EGFR L858R, read-out: L858R growth inhibitory activity IC50. The procedure, abridged: as §1

In experiment [4] the target is T4, various mutants of kinase EGFR (BaF3 cell lines stably transfected with kinase) (Homo sapiens, UniProt P00533, L858R/T790M).
T4 construct: expressed in transfected cells; host or cells: BaF3
The settings on record: BaF3 cell line stably transfected with EGFR L858R/T790M, read-out: L858R/ T790M growth inhibitory activity IC50. The gist of the method:
as §1

Experiment [5] addresses T5, various mutants of kinase EGFR (BaF3 cell lines stably transfected with kinase) (Homo sapiens, UniProt P00533, T790M/C797S, form not given).
T5 construct: other: BaF3 cells stably transfected with EGFR Δ19Del/T790M/C797S; MTS, 48; other: BaF3 cell line stably transfected with EGFR Δ19Del/T790M/C7
The settings on record: BaF3 cell line stably transfected with EGFR Δ19Del/T790M/C797S, read-out: Δ19Del/T790M/ C797S growth inhibitory activity IC50. The procedure, abridged: as §1

Experiment [6] concerns the target T6, various mutants of kinase EGFR (BaF3 cell lines stably transfected with kinase) (Homo sapiens, UniProt P00533, T790M, form not given).
T6 construct: other: BaF3 cells stably transfected with EGFR Δ19Del/T790M; MTS, 48 h; other: BaF3 cell line stably transfected with EGFR Δ19Del/T790M; MTS, 48
The settings on record: BaF3 cell line stably transfected with EGFR Δ19Del/T790M, read-out: Δ19Del/ T790M growth inhibitory activity IC50. The procedure, abridged: as §1

Bounds are passed on as bounds.

T6 sequence (P00533 with tags, fused parts or gaps DEL746-750/T790M, form open): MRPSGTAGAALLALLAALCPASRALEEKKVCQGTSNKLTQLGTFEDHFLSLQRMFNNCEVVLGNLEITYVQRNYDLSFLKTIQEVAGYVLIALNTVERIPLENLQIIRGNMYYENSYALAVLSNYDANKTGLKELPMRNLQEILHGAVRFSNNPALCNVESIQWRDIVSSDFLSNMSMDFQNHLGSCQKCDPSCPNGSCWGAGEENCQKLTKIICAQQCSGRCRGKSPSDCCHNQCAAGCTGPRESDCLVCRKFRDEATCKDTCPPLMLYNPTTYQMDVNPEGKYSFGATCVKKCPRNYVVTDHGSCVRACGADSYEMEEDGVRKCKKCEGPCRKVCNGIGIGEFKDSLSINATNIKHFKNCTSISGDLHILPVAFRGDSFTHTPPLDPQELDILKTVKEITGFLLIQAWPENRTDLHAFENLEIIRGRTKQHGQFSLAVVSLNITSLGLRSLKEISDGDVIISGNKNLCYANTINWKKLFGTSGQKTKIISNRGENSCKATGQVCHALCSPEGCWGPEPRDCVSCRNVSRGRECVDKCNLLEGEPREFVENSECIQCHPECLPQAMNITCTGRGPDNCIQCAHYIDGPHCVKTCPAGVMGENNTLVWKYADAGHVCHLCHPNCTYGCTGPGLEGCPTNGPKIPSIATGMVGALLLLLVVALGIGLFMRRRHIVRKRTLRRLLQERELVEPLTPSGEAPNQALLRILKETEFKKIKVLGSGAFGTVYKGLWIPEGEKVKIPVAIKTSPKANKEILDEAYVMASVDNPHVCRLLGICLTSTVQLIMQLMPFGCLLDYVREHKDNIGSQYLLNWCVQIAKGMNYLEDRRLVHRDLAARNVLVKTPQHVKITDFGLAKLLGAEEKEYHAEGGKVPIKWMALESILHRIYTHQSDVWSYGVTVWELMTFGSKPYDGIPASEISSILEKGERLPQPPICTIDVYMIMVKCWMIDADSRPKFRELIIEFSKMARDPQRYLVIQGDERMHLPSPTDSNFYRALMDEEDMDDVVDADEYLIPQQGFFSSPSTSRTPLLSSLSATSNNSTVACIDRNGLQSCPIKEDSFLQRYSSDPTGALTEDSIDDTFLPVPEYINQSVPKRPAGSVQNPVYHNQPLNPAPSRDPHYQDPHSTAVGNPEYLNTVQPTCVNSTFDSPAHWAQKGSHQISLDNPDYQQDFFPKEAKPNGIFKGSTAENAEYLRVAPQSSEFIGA
T5 sequence (P00533 with tags, fused parts or gaps DEL746-750/T790M/C797S, form open): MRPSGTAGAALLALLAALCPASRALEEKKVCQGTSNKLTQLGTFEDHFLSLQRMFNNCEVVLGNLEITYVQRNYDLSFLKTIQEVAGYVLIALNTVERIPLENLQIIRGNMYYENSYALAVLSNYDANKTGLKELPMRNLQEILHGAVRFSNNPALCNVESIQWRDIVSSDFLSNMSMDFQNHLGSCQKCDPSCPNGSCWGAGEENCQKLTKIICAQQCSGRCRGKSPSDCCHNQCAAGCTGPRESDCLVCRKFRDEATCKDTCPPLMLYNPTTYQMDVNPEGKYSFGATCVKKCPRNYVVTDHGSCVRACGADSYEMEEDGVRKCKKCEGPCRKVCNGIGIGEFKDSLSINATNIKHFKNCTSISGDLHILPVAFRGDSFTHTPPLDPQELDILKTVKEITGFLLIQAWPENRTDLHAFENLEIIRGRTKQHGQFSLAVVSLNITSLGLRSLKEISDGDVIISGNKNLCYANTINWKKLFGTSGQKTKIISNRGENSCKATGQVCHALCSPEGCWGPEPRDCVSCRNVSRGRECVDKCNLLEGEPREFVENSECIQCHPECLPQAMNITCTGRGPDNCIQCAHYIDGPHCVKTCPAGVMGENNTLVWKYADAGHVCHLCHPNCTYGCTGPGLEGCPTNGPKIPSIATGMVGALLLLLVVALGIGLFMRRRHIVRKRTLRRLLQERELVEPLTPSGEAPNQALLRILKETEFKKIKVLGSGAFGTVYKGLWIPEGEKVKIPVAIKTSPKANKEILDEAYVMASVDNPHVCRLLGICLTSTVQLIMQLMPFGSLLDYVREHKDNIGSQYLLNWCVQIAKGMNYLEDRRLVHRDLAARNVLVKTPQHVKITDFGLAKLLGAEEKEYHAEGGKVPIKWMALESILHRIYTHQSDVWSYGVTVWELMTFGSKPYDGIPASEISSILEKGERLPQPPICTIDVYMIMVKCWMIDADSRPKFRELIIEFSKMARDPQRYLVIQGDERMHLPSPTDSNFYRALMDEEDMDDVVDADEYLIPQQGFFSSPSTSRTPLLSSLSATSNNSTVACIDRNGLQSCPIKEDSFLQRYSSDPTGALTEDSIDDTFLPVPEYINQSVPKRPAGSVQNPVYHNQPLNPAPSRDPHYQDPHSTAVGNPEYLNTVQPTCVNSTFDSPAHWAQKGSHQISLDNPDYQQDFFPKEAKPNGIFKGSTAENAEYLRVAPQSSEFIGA
T2 sequence (P00533 25-1210 T790M/C797S/L858R): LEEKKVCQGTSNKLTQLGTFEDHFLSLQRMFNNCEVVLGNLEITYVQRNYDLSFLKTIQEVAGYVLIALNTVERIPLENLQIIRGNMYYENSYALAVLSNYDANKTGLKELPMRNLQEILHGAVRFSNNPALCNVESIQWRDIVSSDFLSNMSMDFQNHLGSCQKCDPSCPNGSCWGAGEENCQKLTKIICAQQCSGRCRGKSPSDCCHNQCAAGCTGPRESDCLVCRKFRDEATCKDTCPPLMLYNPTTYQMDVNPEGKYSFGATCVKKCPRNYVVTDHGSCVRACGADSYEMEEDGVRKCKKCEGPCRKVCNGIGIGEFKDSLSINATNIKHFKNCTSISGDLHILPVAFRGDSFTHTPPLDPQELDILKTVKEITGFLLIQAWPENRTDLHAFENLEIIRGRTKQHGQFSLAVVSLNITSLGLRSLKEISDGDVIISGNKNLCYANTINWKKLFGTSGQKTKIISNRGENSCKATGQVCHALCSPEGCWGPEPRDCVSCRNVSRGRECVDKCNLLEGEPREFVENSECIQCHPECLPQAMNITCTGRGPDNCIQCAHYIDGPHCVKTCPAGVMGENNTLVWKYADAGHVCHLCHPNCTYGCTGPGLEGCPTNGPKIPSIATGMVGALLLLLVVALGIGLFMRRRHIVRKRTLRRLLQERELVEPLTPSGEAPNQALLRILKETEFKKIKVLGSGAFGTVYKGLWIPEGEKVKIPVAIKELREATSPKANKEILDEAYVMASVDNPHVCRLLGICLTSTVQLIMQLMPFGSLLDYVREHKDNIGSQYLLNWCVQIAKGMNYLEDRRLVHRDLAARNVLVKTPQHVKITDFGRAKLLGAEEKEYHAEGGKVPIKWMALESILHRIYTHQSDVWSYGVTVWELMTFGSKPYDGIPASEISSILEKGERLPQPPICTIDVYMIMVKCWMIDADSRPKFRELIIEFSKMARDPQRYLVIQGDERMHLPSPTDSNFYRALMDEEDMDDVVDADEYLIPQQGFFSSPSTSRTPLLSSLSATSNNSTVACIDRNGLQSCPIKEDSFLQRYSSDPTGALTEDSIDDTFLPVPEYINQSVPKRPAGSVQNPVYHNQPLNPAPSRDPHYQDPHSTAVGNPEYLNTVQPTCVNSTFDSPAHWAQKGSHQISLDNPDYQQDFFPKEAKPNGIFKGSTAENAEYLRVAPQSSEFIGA

With `CCc1cnc(Nc2ccc(N3CCC(N4CCN(C)CC4)CC3)c(F)c2F)nc1Nc1ccc2nccnc2c1N(C)S(C)(=O)=O` [Compound I-348], the IC50 is 50 to 500 nM in experiment [1]; 50 to 500 nM in experiment [2]; 50 to 500 nM in experiment [3]; 50 to 500 nM in experiment [4]; 50 to 500 nM in experiment [5]; no more than 50 nM in experiment [6].
Take `CCc1cnc(Nc2cc(F)c(N3CCC(N4CCN(C)CC4)CC3)c(F)c2)nc1Nc1ccc2nccnc2c1N(C)S(C)(=O)=O` [Compound I-349]: the IC50 is 50 to 500 nM in experiment [1]; no more than 50 nM in experiment [2]; no more than 50 nM in experiment [3]; no more than 50 nM in experiment [4]; no more than 50 nM in experiment [5]; no more than 50 nM in experiment [6].
For `CCc1cc(Nc2ncc(CC)c(Nc3ccc4nccnc4c3N(C)S(C)(=O)=O)n2)c(OC)cc1C(=O)N1CCC(N2CCN(C)CC2)CC1` [Compound I-350], the IC50 in experiment [1], in experiment [2], in experiment [3], in experiment [4], in experiment [5] and in experiment [6] was 50 to 500 nM each time.
In the case of `COc1ccc(N2CCC(C#N)CC2)cc1Nc1ncc(Br)c(Nc2ccc3nccnc3c2N(C)S(C)(=O)=O)n1` [Compound I-351], the IC50 in experiment [1] is 50 to 500 nM; in experiment [2], 50 to 500 nM; in experiment [3], 50 to 500 nM; in experiment [4], no more than 50 nM; in experiment [5], 50 to 500 nM; in experiment [6], 50 to 500 nM.
For `COc1ccc(N2CCNCC2)cc1Nc1ncc(Br)c(Nc2ccc3nccnc3c2N(C)S(C)(=O)=O)n1` [Compound I-352], the IC50 was 50 to 500 nM in experiment [1]; 50 to 500 nM in experiment [2]; 50 to 500 nM in experiment [3]; no more than 50 nM in experiment [4]; 50 to 500 nM in experiment [5]; 50 to 500 nM in experiment [6].
Take `CN1CCN(C2CCN(c3ccc(Nc4ncc(Br)c(Nc5ccc6nccnc6c5N(C)S(C)(=O)=O)n4)c(F)c3F)CC2)CC1` [Compound I-353]: the IC50 in experiment [1] is 50 to 500 nM; in experiment [2], no more than 50 nM; in experiment [3], no more than 50 nM; in experiment [4], no more than 50 nM; in experiment [5], no more than 50 nM; in experiment [6], no more than 50 nM.
As to `CN1CCN(C2CCN(c3c(F)cc(Nc4ncc(Br)c(Nc5ccc6nccnc6c5N(C)S(C)(=O)=O)n4)cc3F)CC2)CC1` [Compound I-354], the IC50 in experiment [1] is 50 to 500 nM; in experiment [2] it was no more than 50 nM; in experiment [3], no more than 50 nM; in experiment [4], no more than 50 nM; in experiment [5], no more than 50 nM; in experiment [6] it was no more than 50 nM.
As to `CCc1cc(Nc2ncc(Br)c(Nc3ccc4nccnc4c3N(C)S(C)(=O)=O)n2)c(OC)cc1C(=O)N1CCC(N2CCN(C)CC2)CC1` [Compound I-355], the IC50 is 50 to 500 nM in experiment [1]; 50 to 500 nM in experiment [2]; 50 to 500 nM in experiment [3]; 50 to 500 nM in experiment [4]; no more than 50 nM in experiment [5]; 50 to 500 nM in experiment [6].
Take `CN1CCN(C2CCN(c3ccc(Nc4ncc(Cl)c(Nc5ccc6nccnc6c5N(C)S(C)(=O)=O)n4)c(F)c3F)CC2)CC1` [Compound I-356]: the IC50 in experiment [1] was 50 to 500 nM; in experiment [2], 50 to 500 nM; in experiment [3], no more than 50 nM; in experiment [4], no more than 50 nM; in experiment [5], no more than 50 nM; in experiment [6], 50 to 500 nM.
On to `CN1CCN(C2CCN(c3c(F)cc(Nc4ncc(Cl)c(Nc5ccc6nccnc6c5N(C)S(C)(=O)=O)n4)cc3F)CC2)CC1` [Compound I-357], for which the IC50 in experiment [1] is 50 to 500 nM; in experiment [2], no more than 50 nM; in experiment [3] it was no more than 50 nM; in experiment [4], no more than 50 nM; in experiment [5], no more than 50 nM; in experiment [6] it was no more than 50 nM.
Regarding `CCc1cc(Nc2ncc(Cl)c(Nc3ccc4nccnc4c3N(C)S(C)(=O)=O)n2)c(OC)cc1C(=O)N1CCC(N2CCN(C)CC2)CC1` [Compound I-358], the IC50 lay in the range of 500 to 2500 nM in experiment [1]; 50 to 500 nM in experiment [2]; 50 to 500 nM in experiment [3]; 50 to 500 nM in experiment [4]; 50 to 500 nM in experiment [5]; 50 to 500 nM in experiment [6].
Take `CN1CCN(C2CCN(c3ccc(Nc4ncc(Br)c(Nc5ccc6nccnc6c5NS(C)(=O)=O)n4)c(F)c3F)CC2)CC1` [Compound I-359]: the IC50 in experiment [1], in experiment [2], in experiment [3], in experiment [4], in experiment [5] and in experiment [6] was no more than 50 nM each time.
With `CN1CCN(C2CCN(c3c(F)cc(Nc4ncc(Br)c(Nc5ccc6nccnc6c5NS(C)(=O)=O)n4)cc3F)CC2)CC1` [Compound I-360], the IC50 was 50 to 500 nM in experiment [1]; 50 to 500 nM in experiment [2]; no more than 50 nM in experiment [3]; no more than 50 nM in experiment [4]; 50 to 500 nM in experiment [5]; 50 to 500 nM in experiment [6].
`CCc1cc(Nc2ncc(Br)c(Nc3ccc4nccnc4c3NS(C)(=O)=O)n2)c(OC)cc1C(=O)N1CCC(N2CCN(C)CC2)CC1` [Compound I-361]: the IC50 lay within 500 to 2500 nM in experiment [1]; 500 to 2500 nM in experiment [2]; 500 to 2500 nM in experiment [3]; 50 to 500 nM in experiment [4]; 500 to 2500 nM in experiment [5]; 500 to 2500 nM in experiment [6].
On to `COc1ccc(N2CCC(O)CC2)cc1Nc1ncc(C)c(Nc2ccc3nccnc3c2N(C)S(C)(=O)=O)n1` [Compound I-362], for which the IC50 in experiment [1] was 50 to 500 nM; in experiment [2], no more than 50 nM; in experiment [3], no more than 50 nM; in experiment [4], 50 to 500 nM; in experiment [5] it was no more than 50 nM; in experiment [6] it was 50 to 500 nM.
Consider `CCc1cnc(Nc2cc(N3CCC(O)CC3)ccc2OC)nc1Nc1ccc2nccnc2c1N(C)S(C)(=O)=O` [Compound I-363], for which the IC50 in experiment [1] was no more than 50 nM; in experiment [2], no more than 50 nM; in experiment [3], no more than 50 nM; in experiment [4] it was no more than 50 nM; in experiment [5], no more than 50 nM; in experiment [6], 50 to 500 nM.
For the molecule `COc1ccc(N2CCC(O)CC2)cc1Nc1ncc(C(C)C)c(Nc2ccc3nccnc3c2N(C)S(C)(=O)=O)n1` [Compound I-364], the IC50 in experiment [1] is no more than 50 nM; in experiment [2], no more than 50 nM; in experiment [3], 50 to 500 nM; in experiment [4] it was 50 to 500 nM; in experiment [5], 50 to 500 nM; in experiment [6] it was no more than 50 nM.
Consider `COc1ccc(N2CCC(O)CC2)cc1Nc1ncc(C2CC2)c(Nc2ccc3nccnc3c2N(C)S(C)(=O)=O)n1` [Compound I-365], for which the IC50 is 50 to 500 nM in experiment [1]; no more than 50 nM in experiment [2]; no more than 50 nM in experiment [3]; no more than 50 nM in experiment [4]; no more than 50 nM in experiment [5]; 50 to 500 nM in experiment [6].
For `COc1ccc(N2CCC(O)CC2)cc1Nc1ncc(OC)c(Nc2ccc3nccnc3c2N(C)S(C)(=O)=O)n1` [Compound I-366], the IC50 in experiment [1] is 50 to 500 nM; in experiment [2], no more than 50 nM; in experiment [3] it was 50 to 500 nM; in experiment [4], no more than 50 nM; in experiment [5] it was no more than 50 nM; in experiment [6], 50 to 500 nM.
Take `COc1ccc(N2CCC(O)CC2)cc1Nc1ncc(F)c(Nc2ccc3nccnc3c2N(C)S(C)(=O)=O)n1` [Compound I-367]: the IC50 in experiment [1] was 500 to 2500 nM; in experiment [2], 50 to 500 nM; in experiment [3], 500 to 2500 nM; in experiment [4], 500 to 2500 nM; in experiment [5], 50 to 500 nM; in experiment [6], 500 to 2500 nM.
For `COc1ccc(N2CCC(O)CC2)cc1Nc1ncc(Cl)c(Nc2ccc3nccnc3c2N(C)S(C)(=O)=O)n1` [Compound I-368], the IC50 is 50 to 500 nM in experiment [1]; no more than 50 nM in experiment [2]; 50 to 500 nM in experiment [3]; no more than 50 nM in experiment [4]; no more than 50 nM in experiment [5]; 50 to 500 nM in experiment [6].
On to `COc1ccc(N2CCC(O)CC2)cc1Nc1ncc(C(F)(F)F)c(Nc2ccc3nccnc3c2N(C)S(C)(=O)=O)n1` [Compound I-369], for which the IC50 in experiment [1] is 50 to 500 nM; in experiment [2], no more than 50 nM; in experiment [3], 50 to 500 nM; in experiment [4], no more than 50 nM; in experiment [5], no more than 50 nM; in experiment [6], no more than 50 nM.

These data come from patent US20230310428A1, “EGFR INHIBITOR AND PREPARATION METHOD AND USE THEREOF” (HONGYUN BIOTECH CO., LTD., priority 2020, published 2023).
